Test results taken from PubChem BioAssay AID1963433 (Molecular Pharmacology Branch, DTP, NCI, 2024).

System: 772245-204-R-J1-PDC complex spheroid growth
Assay: Anticancer human tumor 772245-204-R-J1-PDC patient-derived rhabdomyosarcoma cell line growth inhibition [Asc]
Conditions: for IC50: curve of first compound; for viability, T/C: stronger effect = lower value
In short: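 Tumor cells were grown as complex spheroids with human endothelial cells (HUVEC) and human mesenchymal stem cells as stroma. Agents were tested alone and in combination, in half-log steps down from the clinical Cmax, or from 10 microM where Cmax was unknown.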

[1] = second compound 0.1 µM, first compound 0.0316 µM
[2] = second compound 0.1 µM, first compound 0.1 µM
[3] = second compound 0.316 µM, first compound 0.0316 µM
[4] = second compound 0.316 µM, first compound 0.1 µM
[5] = second compound 1 µM, first compound 0.0316 µM
[6] = second compound 1 µM, first compound 0.1 µM
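Further: compound exposure lasted seven days.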
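Wherever viability, T/C is given: 100% = DMSO vehicle control viability.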

Cc1nc(N2CCC3(CC2)COC(C)C3N)c(CO)nc1Sc1ccnc(N)c1Cl (configuration not stated) + CCN1C(C(=O)NC23CCC(C(=O)O)(CC2)CC3)C(c2cccc(Cl)c2F)C2(C(=O)Nc3cc(Cl)ccc32)C12CCCCC2
IC50 (second compound 0.03 µM): > 3 µM
IC50 (second compound 0.0949 µM): > 3 µM
IC50 (second compound 0.3 µM): > 3 µM
IC50 (second compound 0.949 µM): > 3 µM
IC50 (second compound 3 µM): 2.74 µM
viability, T/C (second compound 0.03 µM, first compound 0.00949 µM): 94.9%
viability, T/C (second compound 0.03 µM, first compound 0.03 µM): 120%
viability, T/C (second compound 0.03 µM, first compound 0.0949 µM): 108%
viability, T/C (second compound 0.03 µM, first compound 0.3 µM): 102%
viability, T/C (second compound 0.03 µM, first compound 0.949 µM): 76.9%
viability, T/C (second compound 0.03 µM, first compound 3 µM): 56.9%
viability, T/C (second compound 0.0949 µM, first compound 0.00949 µM): 97.1%
viability, T/C (second compound 0.0949 µM, first compound 0.03 µM): 100%
viability, T/C (second compound 0.0949 µM, first compound 0.0949 µM): 119%
viability, T/C (second compound 0.0949 µM, first compound 0.3 µM): 93.3%
viability, T/C (second compound 0.0949 µM, first compound 0.949 µM): 84.1%
viability, T/C (second compound 0.0949 µM, first compound 3 µM): 51%
viability, T/C (second compound 0.3 µM, first compound 0.00949 µM): 111%
viability, T/C (second compound 0.3 µM, first compound 0.03 µM): 110%
viability, T/C (second compound 0.3 µM, first compound 0.0949 µM): 88.3%
viability, T/C (second compound 0.3 µM, first compound 0.3 µM): 85.3%
viability, T/C (second compound 0.3 µM, first compound 0.949 µM): 77.8%
viability, T/C (second compound 0.3 µM, first compound 3 µM): 52%
viability, T/C (second compound 0.949 µM, first compound 0.00949 µM): 113%
viability, T/C (second compound 0.949 µM, first compound 0.03 µM): 109%
viability, T/C (second compound 0.949 µM, first compound 0.0949 µM): 109%
viability, T/C (second compound 0.949 µM, first compound 0.3 µM): 97.5%
viability, T/C (second compound 0.949 µM, first compound 0.949 µM): 75.7%
viability, T/C (second compound 0.949 µM, first compound 3 µM): 52%
viability, T/C (second compound 3 µM, first compound 0.00949 µM): 75.6%
viability, T/C (second compound 3 µM, first compound 0.03 µM): 92.5%
viability, T/C (second compound 3 µM, first compound 0.0949 µM): 85.7%
viability, T/C (second compound 3 µM, first compound 0.3 µM): 71.9%
viability, T/C (second compound 3 µM, first compound 0.949 µM): 62.6%
viability, T/C (second compound 3 µM, first compound 3 µM): 48.5%

C#Cc1c(F)ccc2cc(O)cc(-c3ncc4c(N5CC6CCC(C5)N6)nc(OCC56CCCN5CC(F)C6)nc4c3F)c12 (configuration not stated) + CNC(C)C(=O)NC1CN(S(=O)(=O)c2cccc(S(=O)(=O)N3CCC4CCC(C(=O)NC(c5ccccc5)c5ccccc5)N4C(=O)C(NC(=O)C(C)NC)C3)c2)CCC2CCC(C(=O)NC(c3ccccc3)c3ccccc3)N2C1=O
IC50 (second compound 0.00316 µM): > 10 µM
IC50 (second compound 0.01 µM): > 10 µM
IC50 (second compound 0.0316 µM): > 10 µM
IC50 (second compound 0.1 µM): > 10 µM
IC50 (second compound 0.316 µM): > 10 µM
IC50 (second compound 1 µM): > 10 µM
viability, T/C (second compound 0.00316 µM, first compound 0.0316 µM): 104%
viability, T/C (second compound 0.00316 µM, first compound 0.1 µM): 104%
viability, T/C (second compound 0.00316 µM, first compound 0.316 µM): 92.4%
viability, T/C (second compound 0.00316 µM, first compound 1 µM): 102%
viability, T/C (second compound 0.00316 µM, first compound 3.16 µM): 89.2%
viability, T/C (second compound 0.00316 µM, first compound 10 µM): 79%
viability, T/C (second compound 0.01 µM, first compound 0.0316 µM): 101%
viability, T/C (second compound 0.01 µM, first compound 0.1 µM): 88%
viability, T/C (second compound 0.01 µM, first compound 0.316 µM): 91%
viability, T/C (second compound 0.01 µM, first compound 1 µM): 104%
viability, T/C (second compound 0.01 µM, first compound 3.16 µM): 86.5%
viability, T/C (second compound 0.01 µM, first compound 10 µM): 64.1%
viability, T/C (second compound 0.0316 µM, first compound 0.0316 µM): 92.7%
viability, T/C (second compound 0.0316 µM, first compound 0.1 µM): 93.8%
viability, T/C (second compound 0.0316 µM, first compound 0.316 µM): 89.6%
viability, T/C (second compound 0.0316 µM, first compound 1 µM): 101%
viability, T/C (second compound 0.0316 µM, first compound 3.16 µM): 107%
viability, T/C (second compound 0.0316 µM, first compound 10 µM): 71.8%
viability, T/C [1]: 100%
viability, T/C [2]: 93.4%
viability, T/C (second compound 0.1 µM, first compound 0.316 µM): 95.8%
viability, T/C (second compound 0.1 µM, first compound 1 µM): 89%
viability, T/C (second compound 0.1 µM, first compound 3.16 µM): 101%
viability, T/C (second compound 0.1 µM, first compound 10 µM): 67.8%
viability, T/C [3]: 94.2%
viability, T/C [4]: 67.8%
viability, T/C (second compound 0.316 µM, first compound 0.316 µM): 82%
viability, T/C (second compound 0.316 µM, first compound 1 µM): 96.5%
viability, T/C (second compound 0.316 µM, first compound 3.16 µM): 92.4%
viability, T/C (second compound 0.316 µM, first compound 10 µM): 68%
viability, T/C [5]: 78.9%
viability, T/C [6]: 96.2%
viability, T/C (second compound 1 µM, first compound 0.316 µM): 93.3%
viability, T/C (second compound 1 µM, first compound 1 µM): 83%
viability, T/C (second compound 1 µM, first compound 3.16 µM): 80%
viability, T/C (second compound 1 µM, first compound 10 µM): 63.9%

Cn1ncnc1[C@H]1c2n[nH]c(=O)c3cc(F)cc(c23)N[C@@H]1c1ccc(F)cc1 + Cc1c(S(C)(=O)=O)c(-c2cc(F)cc(N3CCN(c4ccc(NS(=O)(=O)c5ccc(NC(CCN6CCC(C(=O)OCCCP(=O)(O)O)CC6)CSc6ccccc6)c(S(=O)(=O)C(F)(F)F)c5)cc4)CC3)c2)c(-c2ccc(Cl)cc2)n1C(C)C
IC50 (second compound 0.1 µM): > 0.1 µM
IC50 (second compound 0.316 µM): 0.00384 µM
IC50 (second compound 1 µM): 0.00123 µM
IC50 (second compound 3.16 µM): < 0.000316 µM
IC50 (second compound 10 µM): < 0.000316 µM
viability, T/C (second compound 0.1 µM, first compound 0.000316 µM): 73.2%
viability, T/C (second compound 0.1 µM, first compound 0.001 µM): 77.1%
viability, T/C (second compound 0.1 µM, first compound 0.00316 µM): 70.5%
viability, T/C (second compound 0.1 µM, first compound 0.01 µM): 63.3%
viability, T/C [1]: 58.9%
viability, T/C [2]: 55%
viability, T/C (second compound 0.316 µM, first compound 0.000316 µM): 61.4%
viability, T/C (second compound 0.316 µM, first compound 0.001 µM): 58.8%
viability, T/C (second compound 0.316 µM, first compound 0.00316 µM): 53.3%
viability, T/C (second compound 0.316 µM, first compound 0.01 µM): 37%
viability, T/C [3]: 29.2%
viability, T/C [4]: 23.6%
viability, T/C (second compound 1 µM, first compound 0.000316 µM): 47.1%
viability, T/C (second compound 1 µM, first compound 0.001 µM): 58.7%
viability, T/C (second compound 1 µM, first compound 0.00316 µM): 37%
viability, T/C (second compound 1 µM, first compound 0.01 µM): 15.5%
viability, T/C [5]: 25.8%
viability, T/C [6]: 15.2%
viability, T/C (second compound 3.16 µM, first compound 0.000316 µM): 34.2%
viability, T/C (second compound 3.16 µM, first compound 0.001 µM): 44.3%
viability, T/C (second compound 3.16 µM, first compound 0.00316 µM): 33.3%
viability, T/C (second compound 3.16 µM, first compound 0.01 µM): 19.7%
viability, T/C (second compound 3.16 µM, first compound 0.0316 µM): 12.5%
viability, T/C (second compound 3.16 µM, first compound 0.1 µM): 10.6%
viability, T/C (second compound 10 µM, first compound 0.000316 µM): 40.9%
viability, T/C (second compound 10 µM, first compound 0.001 µM): 34.6%
viability, T/C (second compound 10 µM, first compound 0.00316 µM): 27.7%
viability, T/C (second compound 10 µM, first compound 0.01 µM): 13.2%
viability, T/C (second compound 10 µM, first compound 0.0316 µM): 11.1%
viability, T/C (second compound 10 µM, first compound 0.1 µM): 12%
